Experimental data taken from patent US20080181875A1, “USE OF CYCLOPHILIN AS ANTIOXIDANT AND PREVENTION OF CYCLOSPORIN A-INDUCED TOXICITY IN CELL TRANSPLANTATION BY OVEREXPRESSION OF CYCLOPHILIN” (priority 2002, published 2008).
Structures can show the parent of a compound that is named as a salt.

What was measured:
H9c2 myoblasts [1] = assay: Effect of antioxidants on muscle differentiation (morphology); type: cell-based, rat; conditions: 5 days in DM; 0.4 mM DFOM, 2000 units/ml catalase, 10 mM Tiron
Experimental: H9c2 myoblasts were cultured for 5 days in DM containing 0.4 mM of DFOM, 2000 units/ml of catalase, 10 mM of Tiron (4,5-dihydroxy-1,3-benzene-disulfonic acid) to induce differentiation, during which morphological changes were observed. The control is the myoblasts which were induced to differentiate in the absence of […].

Bax [2] = assay: Western blot of apoptosis-accelerating protein Bax; type: cell-based, rat; conditions: DM; 1-10 μM CsA, 9 μM FK506, 200 nM ascomycin
Description: The results are shown in the upper part of FIG. 6a. β-actin is used as a loading control.
After being scanned, the Western blot analysis bands were quantified by Bio-Rad imaging densitometer. The results are shown in the lower part of FIG. 6a. In the histograms, the bars express the Bax levels of the samples as mean±standard deviation values of the fold numbers compared to those of the control.

myogenin and MRF4 = assay: Western blot of myogenic markers myogenin and MRF4; type: cell-based, rat; conditions: FK506, ascomycin in DM
Experimental: In addition, the protein expression levels of the myogenin and MRF4, early and late myogenic markers, were determined by Western blot analysis. To this end, myoblast extracts treated with the drugs were separated on SDS-PAGE and transferred onto a nitrocellulose membrane which was then blocked and reacted with predetermined primary antibodies (polyclonal myogenic antibody and polyclonal MRF4 antibody (Santa Cruz, Calif., USA) and then with a secondary antibody (anti-rabbit IgG-HRP conjugate with a chemiluminescent reactive enzyme able to detect the primary antibodies) (Santa Cruz, Calif., USA). Finally, the specimens were detected by enhanced ECL-plus chemiluminescence (Amersham Pharmacia Biotech, Piscataway, N.J., USA). Non-myogenic β-actin protein was used as a loading control.

[3] = tested on: H9c2 rat cardiac myoblasts; assay: Morphological observation of muscle differentiation of myoblasts in DM; type: cell-based; conditions: 72 hours in DM
Experimental: As a control, myoblasts were cultured in the absence of the drugs. Before use, the myoblasts were cultured to a cell confluency of about 70%.

transplanted myoblasts = conditions: cited from earlier work
H9c2 myoblasts [4] = assay: Apoptosis by in-situ TUNEL assay and DNA fragmentation analysis; type: cell-based, rat; conditions: 72 hours in DM
Experimental: TUNEL analysis was performed using ApopTag Flurescein In situ Apoptosis Detection kit (Intergen, Purchase, N.Y.). The results are given in FIG. 2c where arrows indicate TUNEL positive cells.
Once cells undergo apoptosis, the DNA is digested into fragments diferring by 180-200 bp by endonuclease. […] DNA fragmentation aiming to identify the DNA laddering pattern was performed as follows. […] The cell lysates thus obtained were treated with 50 μg/ml RNase A at 37° C. for 2 hours and then with 500 μg/ml proteinase K at 55° C. for 2 hours. DNA was extracted by a phenol/chloroform method and precipitated in 70% (v/v) isopropanol. After being centrifuged at 15,000 rpm for 15 min, the precipitates were dissolved in a TE buffer (10 mM Tris-HCl (pH 8.0), 1 mM EDTA).

calcineurin = assay: Calcineurin phosphatase activity in H9c2 myoblasts (BioMol Quantizyme assay); conditions: for influence on basal calcineurin phosphatase activity / concentration at which maximal inhibitory effect on the increased calcineurin phosphatase activity was observed: H9c2 myoblasts; for inhibition of calcineurin phosphatase activity induced during muscle differentiation: H9c2 myoblasts in DM; for concentration at which maximal inhibitory effect on the increased calcineurin phosphatase activity was observed: activity induced by DM (2 days) and PE (12 h)
H9c2 cardiac myoblasts = assay: Cell cycle and apoptosis (sub-G0/G1) by propidium iodide FACS; type: cell-based, rat; conditions: DM 72 h
Description: Using 20,000 cells obtained from each of the cultures, measurements were made of percentages of cells in each phase of the cell cycle (G0/G1, S and G2/M) and percentages of cells in sub-G0/G1 aliquots (that is, apoptotic cells).

[5] = tested on: mitochondria membrane potential; assay: Mitochondria membrane potential by DiOC6[3] flow cytometry; type: cell-based; conditions: 48 hours in DM; 1-10 μM CsA, 9 μM FK506, 200 nM ascomycin
Experimental: H9c2 myoblasts cultured in PM and in DM in the absence of the drugs were measured for Δψm (control). In the FACS plots of FIG. 6b, the second peaks and the first peaks represent viable cells with high DiOC6[3] contents and dead cells with DiOC6[3]. Numerals mean percentages of the myoblasts with decreased Δψm.

ROS = ROS content of CypA-transfected cells in DM with or without CsA (DCF FACS); type: cell-based, rat; conditions: DM containing no CsA or 10 μM CsA
Experimental: These transfected cells were grown at 37° C. in the presence of 10 μM DCF, washed with PBS, resuspended in […] of PBS, and measured for ROS content by FACS analysis.

Bax [6] = assay: Bax expression in CypA-transfected cells exposed to CsA or H2O2 (Western blot); type: cell-based, rat; conditions: exposed to CsA; similar results with H2O2
Description: In the histograms of FIG. 7f, bars express the Bax levels in the samples as percentages compared to the mock-transfected cells.

PPIase activity = conditions: cited from earlier work
H9c2 myoblasts [7] = assay: Survival and morphology of CypA-transfected cells exposed to CsA or H2O2; type: cell-based, rat; conditions: 10 μM CsA 72 h in DM; for protection from CsA- or H2O2-induced apoptotic cell death: 300 μM H2O2 12 h in DMEM/F-12
Experimental: Separately, the cells were exposed to 300 μM H2O2 for 12 hours in DMEM/F-12. […] Here, % cell survival is obtained by dividing […].

H9c2 myoblasts [8] = assay: Muscle differentiation of CypA-transfected cells in DM (morphology, time required); type: cell-based, rat; conditions: for muscle differentiation in DM: transfected H9c2 cells, no CsA; for time required for muscle differentiation: transfected H9c2 cells in DM, mock control 4-5 days
Experimental: To determine the role of CypA, that is, PPIase, in muscle differentiation, time periods required for the complete differentiation of the three CypA gene-transfected cells, CypA/wt, CypA/W121F and CypA/R55A were measured while they were cultured in DM. In addition, their morphological changes were observed when they were completely differentiated.

Molecule: CC(=O)N(O)CCCCCNC(=O)CCC(=O)N(O)CCCCCNC(=O)CCC(=O)N(O)CCCCCN [DFOM, deferoxamine mesylate]
- effect on muscle differentiation (H9c2 myoblasts [1]): blocking activity

Molecule: C=CC[C@@H]1/C=C(\C)C[C@H](C)C[C@H](OC)[C@H]2O[C@@](O)(C(=O)C(=O)N3CCCC[C@H]3C(=O)O[C@H](/C(C)=C/[C@@H]3CC[C@@H](O)[C@H](OC)C3)[C@H](C)[C@@H](O)CC1=O)[C@H](C)C[C@@H]2OC [FK506, tacrolimus]
- Bax expression (Bax [2]): do not affect
- myogenin and MRF4 protein expression (myogenin and MRF4): no influence
- morphological changes during muscle differentiation [3]: no morphological differences
- success rate of myoblast transplantation (transplanted myoblasts; clinical trials and animal model studies): ≥ 95%
- apoptosis (TUNEL, DNA laddering) (H9c2 myoblasts [4]): not related to apoptosis
- influence on basal calcineurin phosphatase activity (calcineurin): no influence
- inhibition of calcineurin phosphatase activity induced during muscle differentiation (calcineurin): completely inhibit
- concentration at which maximal inhibitory effect on the increased calcineurin phosphatase activity was observed (calcineurin): 1 µM
- % Apoptosis (sub-G0/G1 fraction) (H9c2 cardiac myoblasts; FK506 9 μM): 11 ± 3%
- % G0/G1 (H9c2 cardiac myoblasts; FK506 9 μM): 83 ± 5%
- % G2/M (H9c2 cardiac myoblasts; FK506 9 μM): 4 ± 1%
- % S (H9c2 cardiac myoblasts; FK506 9 μM): 4 ± 1%
- mitochondria membrane potential (Δψm) [5]: not observed

Molecule: O=S(=O)(O)c1cc(O)c(O)c(S(=O)(=O)O)c1 [Tiron, 4,5-dihydroxy-1,3-benzene-disulfonic acid]
- effect on muscle differentiation (H9c2 myoblasts [1]): blocking activity

Molecule: CC[C@@H]1/C=C(\C)C[C@H](C)C[C@H](OC)[C@H]2O[C@@](O)(C(=O)C(=O)N3CCCC[C@H]3C(=O)O[C@H](/C(C)=C/[C@@H]3CC[C@@H](O)[C@H](OC)C3)[C@H](C)[C@@H](O)CC1=O)[C@H](C)C[C@@H]2OC [ascomycin]
- Bax expression (Bax [2]): do not affect
- myogenin and MRF4 protein expression (myogenin and MRF4): no influence
- morphological changes during muscle differentiation [3]: no morphological differences
- apoptosis (TUNEL, DNA laddering) (H9c2 myoblasts [4]): not related to apoptosis
- influence on basal calcineurin phosphatase activity (calcineurin): no influence
- inhibition of calcineurin phosphatase activity induced during muscle differentiation (calcineurin): completely inhibit
- concentration at which maximal inhibitory effect on the increased calcineurin phosphatase activity was observed (calcineurin): 0.02 µM
- % Apoptosis (sub-G0/G1 fraction) (H9c2 cardiac myoblasts; Ascomycin 200 nM): 10 ± 3%
- % G0/G1 (H9c2 cardiac myoblasts; Ascomycin 200 nM): 85 ± 3%
- % G2/M (H9c2 cardiac myoblasts; Ascomycin 200 nM): 4 ± 1%
- % S (H9c2 cardiac myoblasts; Ascomycin 200 nM): 2 ± 1%
- mitochondria membrane potential (Δψm) [5]: not observed

Molecule: O=P1(N(CCCl)CCCl)NCCCO1 (centres unmarked) [cyclophosphamide]
- success of allogenic myoblast transplantation (transplanted myoblasts; in vivo): did not increase the survival

Molecule: CypA/R55A: mutated rat CypA with alanine instead of arginine at position 55, transfected into H9c2 myoblasts
- ROS level (ROS): significantly increased ROS generation
- Bax expression (Bax [6]): increased Bax expression
- PPIase activity compared to the wild type protein (PPIase activity): one thousandth
- protection from CsA- or H2O2-induced apoptotic cell death (H9c2 myoblasts [7]): increases ROS-induced apoptosis
- muscle differentiation in DM (H9c2 myoblasts [8]): no traces of differentiation

Molecule: CypA/W121F: mutated rat CypA with phenylalanine instead of tryptophan at position 121, transfected into H9c2 myoblasts
- ROS level (ROS): removed a greater amount of ROS than did CypA/wt
- Bax expression (Bax [6]): inhibited Bax expression
- PPIase activity compared to the wild type protein (PPIase activity): half
- protection from differentiation blockage (H9c2 myoblasts [7]): not from differentiation blockage
- protection from CsA- or H2O2-induced apoptotic cell death (H9c2 myoblasts [7]): protect cells
- time required for muscle differentiation (H9c2 myoblasts [8]): 14 to 15 days
- muscle differentiation in DM (H9c2 myoblasts [8]): undergo muscle differentiation

Molecule: CypA/wt: wild type rat brain CypA gene transfected into and overexpressed in H9c2 rat cardiac myoblasts
- ROS level (ROS): reduced the ROS level
- Bax expression (Bax [6]): inhibited Bax expression
- protection from differentiation blockage (H9c2 myoblasts [7]): not from differentiation blockage
- protection from CsA- or H2O2-induced apoptotic cell death (H9c2 myoblasts [7]): protect cells
- time required for muscle differentiation (H9c2 myoblasts [8]): 8 to 9 days
- muscle differentiation in DM (H9c2 myoblasts [8]): undergo muscle differentiation

B1: catalase: antioxidant enzyme purchased from Sigma (protein, UniProt P00432 2-527, looked up)
Catalase: ADNRDPASDQMKHWKEQRAAQKPDVLTTGGGNPVGDKLNSLTVGPRGPLLVQDVVFTDEMAHFDRERIPERVVHAKGAGAFGYFEVTHDITRYSKAKVFEHIGKRTPIAVRFSTVAGESGSADTVRDPRGFAVKFYTEDGNWDLVGNNTPIFFIRDALLFPSFIHSQKRNPQTHLKDPDMVWDFWSLRPESLHQVSFLFSDRGIPDGHRHMNGYGSHTFKLVNANGEAVYCKFHYKTDQGIKNLSVEDAARLAHEDPDYGLRDLFNAIATGNYPSWTLYIQVMTFSEAEIFPFNPFDLTKVWPHGDYPLIPVGKLVLNRNPVNYFAEVEQLAFDPSNMPPGIEPSPDKMLQGRLFAYPDTHRHRLGPNYLQIPVNCPYRARVANYQRDGPMCMMDNQGGAPNYYPNSFSAPEHQPSALEHRTHFSGDVQRFNSANDDNVTQVRTFYLKVLNEEQRKRLCENIAGHLKDAQLFIQKKAVKNFSDVHPEYGSRIQALLDKYNEEKPKNAVHTYVQHGSHLSAREKANL
- effect on muscle differentiation (H9c2 myoblasts [1]): blocking activity
